Results reported in patent publication US10844013B2, “Phenyl amino piperidine mTORC inhibitors and uses thereof” (Navitor Pharmaceuticals, Inc., priority 2016, dated 2020).

How the values were obtained:
Type in all cases: cell-based
293T cells = assay: ATP/Rotenone assay, glucose dose response, 293T cells; settings: Homo sapiens, HEK-293T, 10 uM rotenone pre-treat, 15 min glucose, Celltiter-Glo
Description: (§1) Example 158: ATP/Rotenone Assay
(§2) Day 1: Plate cells in Corning 96-Well Clear Bottom Black Polystyrene Microplates (corning 3340) in Glucose-free DMEM+10% dFBS • 80 uL/well • 25,000 cells/well for 293T • 10,000 cells/well for MCF7
(§3) Glucose DR to Establish Glucose EC50
(§4) • 1. […] Determine Compound IC50s • 1. 1 h pre-treat Rotenone/compound solution • Make 9× (90 uM) rotenone: 10 mM stock of Rotenone fresh—dilute 1:111× in Glucose-free DMEM). • Make compound dilution series in DMSO then dilute 1:111 in 90 uM rotenone in glucose-free media • Add 10 uL of 9× rotenone/compound solutions per well • 2. Stimulate with glucose for 15 min • Make glucose DR at 10× concentration in glucose-free DMEM • Add 10 uL per well and incubate at 37° C. for 15 min 3. Reconstitute and Measure • Remove plate, immediately add 100 uL of reconstituted Celltiter-Glo reagent (Promega; G7570) per well • Shake plate covered for 10 min at room temperature • Let plate sit for 2-5 min, read luminescence • Calculate IC50 for compounds

MCF-7 cells [1] = assay: ATP/Rotenone assay, glucose dose response, MCF-7 cells; settings: Homo sapiens, MCF7, 10 uM rotenone pre-treat, 15 min glucose, Celltiter-Glo
Description: as §1, §2, §3, §4

[2] = test system: pS6K1 (p-p70 S6 Kinase (Thr389)) in MCF-7 cells; assay: AlphaLISA Ultra pS6K1 assay; settings: Homo sapiens, MCF7, 2 h, 2 hours compound incubation
Procedure, shortened: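 MCF-7 cells seeded 20–24 h, medium refreshed 2 h, then treated 2 h with compound (0.5% DMSO final). Lysates probed for Thr389-phosphorylated p70 S6K by AlphaLISA Ultra, 2 h acceptor then 2 h donor bead incubation, read on a multimode reader.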

[3] = test system: pAKT (p-Akt 1/2/3 (Ser473)) in MCF-7 cells; assay: AlphaLISA Ultra pAKT assay; settings: Homo sapiens, MCF7, 2 hours compound incubation
Procedure, shortened: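 AlphaLISA read-out (2 h acceptor-bead, then 2 h donor-bead incubation) on thawed lysates of MCF-7 cells exposed to compounds for 2 h in 0.5% DMSO. Cells had been plated 20-24 h and given fresh medium 2 h before dosing.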

MCF-7 cells [4] = assay: Radioactive glucose uptake in MCF-7 cells; settings: Homo sapiens, MCF7, 3H-2DG uptake
Description: Example 157: Radioactive Glucose Uptake in MCF-7 Cells
Assay Protocol • 1. Seed approximately 12,000 MCF-7 cells cultured without insulin per well in 96-well plates (BIOCOAT, #356690) and let the cells sit in hood for 30 min. (Cell culture medium: DMEM+10% FBS). • 2. Put the cell culture plates in TC incubator (5% CO2, 37° C.) and incubate overnight. • 3. Take out the cell plates and wash with prewarmed KRH buffer (37° C.) three times using BioTek plate washer. (KRH buffer preparation: 136 mM NaCl, 4.7 mM KCl, 1.25 mM MgCl2, 1.2 mM CaCl2), 20 mM HEPES, 0.1 mg/ml sodium pyruvate, 0.1% BSA, pH 7.4). • 4. Compound preparation and treatment: • a) Add 12 ul compound stock in 100% DMSO to the first column of Echo LDV plate • b) Serially dilute the compound solution in 100% DMSO (4 uL+8 uL DMSO) using Bravo for 9 doses • c) Dispense 350 nL compounds using Echo to the working plate. • d) i) Without compound preincubation condition, dispense 116 uL KRH buffer containing tritiated 2-deoxy-D-glucose (3H-2DG) and 2-deoxy-D-glucose (2DG) to the working plate and mix. • ii. With compound preincubation condition, dispense 110 uL KRH buffer only to the working plates and mix • e) Keep the compound working plate at 37° C. incubator until use • 5. Discard the KRH buffer (cells were kept in KRH buffer for 10-15 min before 2-DG addition) and transfer 100 uL compound working solution out to the cell culture plate using Bravo. Incubate for 20 mins at 37° C. (2DG final at 0.2 mM, 3H-2DG at 10 uCi/mL). • 6. Add prewarmed 50 uL KRH buffer (37° C.) containing 60 mM cold 2DG to the wells to stop the 2DG uptake using Multidrop combi • 7. Wash the cells with prewarmed PBS three times using BioTek plate washer • 8. Add 50 uL lysis buffer (0.1 M NaOH) into the assay plate to lyse the cells using Bravo and shake at 800 rpm for 30 min. • 9. Mix and transfer 20 uL lysate to a new white plate (Corning, #3610) and add 200 uL MicroScint-20 using Bravo • 10. Shake the plate at 1000 rpm for 30 min and count in a MicroBeta plate reader.

SMILES	EC50 (293T cells)	EC50 (MCF-7 cells [1])	IC50 [2]	IC50 [3]	IC50 (MCF-7 cells [4])
O=C[C@H](O)[C@@H](O)[C@H](O)[C@H](O)CO [glucose]	~1000 µM	~250 µM	–	–	–
Cc1cc(C)c(C(=O)N2CCN(c3cccc(S(N)(=O)=O)c3)CC2)cc1NC1CCN(c2ccccc2Cl)CC1 [I-4, 3-(4-(5-(1-(2-Chlorophenyl)piperidin-4-ylamino)-2,4-dimethylbenzoyl)piperazin-1-yl)benzenesulfonamide]	–	–	1 to 3 µM	> 10 µM	> 10 µM
Cc1cc(C)c(C(=O)N2CCN(c3cccc(F)c3[S@@](C)(=N)=O)CC2)cc1NC1CCN(c2ccccc2C#N)CC1 (single isomer, unassigned) [I-88]	–	–	0.01 to 1 µM	> 10 µM	0.01 to 1 µM
Cc1cc(C)c(C(=O)N2CCN(c3cccc(F)c3S(N)(=O)=O)CC2)c(C)c1NC1CCN(c2ccccc2C#N)CC1 [I-14, 2-(4-(3-(1-(2-Cyanophenyl)piperidin-4-ylamino)-2,4,6-trimethylbenzoyl)piperazin-1-yl)-6-fluorobenzenesulfonamide]	–	–	0.01 to 1 µM	> 10 µM	0.01 to 1 µM
Cc1cc(C)c(C(=O)N2CCN(c3cc(F)ccn3)[C@H](CO)C2)cc1NC1CCN(c2ccccc2C#N)CC1 [I-100, (S)-2-(4-(5-(4-(4-Fluoropyridin-2-yl)-3-(hydroxymethyl)piperazine-1-carbonyl)-2,4-dimethylphenylamino)piperidin-1-yl)benzonitrile]	–	–	0.01 to 1 µM	> 10 µM	0.01 to 1 µM
Cc1nc(C)c(C(=O)N2CCN(c3ccccc3S(N)(=O)=O)CC2)cc1NC1CCN(c2ccccc2C#N)CC1 [I-12, 2-(4-(5-(1-(2-Cyanophenyl)piperidin-4-ylamino)-2,6-dimethylnicotinoyl)piperazin-1-yl)benzenesulfonamide]	–	–	> 10 µM	> 10 µM	> 10 µM
Cc1cc(C)c(S(=O)(=O)N2CCN(c3ccccc3S(N)(=O)=O)CC2)nc1NC1CCN(c2ccccc2C#N)CC1 [I-111, 2-(4-(6-(1-(2-Cyanophenyl)piperidin-4-ylamino)-3,5-dimethylpyridin-2-ylsulfonyl)piperazin-1-yl)benzenesulfonamide]	–	–	0.01 to 1 µM	> 10 µM	0.01 to 1 µM
Cc1cc(C)c(C(=O)N2CCN(c3ccccc3S(N)(=O)=O)CC2)cc1NC1CCN(c2ccccc2C#N)CC1C (centres unmarked) [I-43, 2-(4-(5-(1-(2-Cyanophenyl)-3-methylpiperidin-4-ylamino)-2,4-dimethylbenzoyl)piperazin-1-yl)benzenesulfonamide]	–	–	0.01 to 1 µM	> 10 µM	0.01 to 1 µM
Cc1cc(C)c(C(=O)N2CCN(c3ncccc3S(N)(=O)=O)CC2)cc1NC1CCN(c2ccccc2C#N)CC1 [I-60]	–	–	1 to 3 µM	> 10 µM	0.01 to 1 µM
